Test results: PubChem BioAssay AID1332 (Southern Research Institute, 2008)
Converted amounts (≈) assume the structure as drawn. Starred links: 1 amine or outer side, 2 acyl side, 3 side chain; linkers in the order of their positions; H or OH if unused. Positions of bridges follow the written chain, without caps; N, C: chain ends. Non-standard residues stand in square brackets, D forms with d. Residues, ends and D or L forms follow the SMILES beside them. *: point of attachment. X2 = NC1=N[C@@H]([C@H](N[*:1])C(=O)[*:2])C[C@H](O)N1; ΔAla(Z-3-ureido) = NC(=O)N/C=C(\N)C(=O)O; β3hOrn = NCCC[C@H](N)CC(=O)*; Dap = NC[C@H](N)C(=O)O

Tested on: M. tuberculosis H37Rv growth inhibition
Experiment: Confirmatory growth inhibition assay, mycobacterium tuberculosis h37rv, with cytotoxicity (AID 1332);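 note: bacteria incubated 7 days before adding Alamar blue readout reagent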

Row | SMILES | IC90 [µg/mL]
1 | C(=C\c1ccccc1)/CN1CCN(C(c2ccccc2)c2ccccc2)CC1 | 7.6 (≈ 20.6 µM)
2 | O=C(N/N=C/c1ccc([N+](=O)[O-])o1)c1ccc(O)cc1 | 1.54 (≈ 5.58 µM)
3 | Clc1ccc(CSC(Cn2ccnc2)c2ccc(Cl)cc2Cl)cc1 (stereo unspecified) | 2.53 (≈ 6.37 µM)
4 | NNC(=O)c1ccncc1 | 10.4 (≈ 75.5 µM)
5 | COc1cc(NS(=O)(=O)c2ccc(N)cc2)ncn1 | 3.78 (≈ 13.5 µM)
6 | N[C@@H](C(=O)N[C@@H]1C(=O)N2C(C(=O)O)=C(Cl)CS[C@H]12)c1ccccc1 | 11.3 (≈ 30.6 µM)
7 | CC(=O)N1CCN(c2ccc(OC[C@H]3CO[C@](Cn4ccnc4)(c4ccc(Cl)cc4Cl)O3)cc2)CC1 | 2.49 (≈ 4.69 µM)
8 | CCCCCCC[N+](CC)(CC)CCCCc1ccc(Cl)cc1 | 15.6
9 | NC[C@H]1O[C@H](O[C@H]2[C@H](O)[C@@H](O[C@H]3O[C@H](CO)[C@@H](O)[C@H](N)[C@H]3O)[C@H](N)C[C@@H]2N)[C@H](N)C[C@@H]1O | 1.94 (≈ 4.16 µM)
10 | Clc1ccc(C(Cn2ccnc2)OCc2c(Cl)cccc2Cl)c(Cl)c1 (stereo unspecified) | 2.51 (≈ 6.04 µM)
11 | CNCCC=C1c2ccccc2CCc2ccccc21 | 16.8 (≈ 63.6 µM)
12 | CCCCC(CC)CN1CN(CC(CC)CCCC)CC(C)(N)C1 (stereo unspecified) | 6.85 (≈ 20.2 µM)
13 | Cc1cc(C(C)(C)CC(C)(C)C)ccc1OCCOCC[N+](C)(C)Cc1ccccc1 | 4.91
14 | CC(Cc1ccccc1)NCCC(c1ccccc1)c1ccccc1 (stereo unspecified) | 4.55 (≈ 13.8 µM)
15 | CC(C)(C)c1ccc(C(O)CCCN2CCC(C(O)(c3ccccc3)c3ccccc3)CC2)cc1 (stereo unspecified) | 1.61 (≈ 3.42 µM)
16 | CCn1cc(C(=O)O)c(=O)c2cc(F)c(N3CCNC(C)C3)c(F)c21 (stereo unspecified) | 0.258 (≈ 0.734 µM)
17 | O=c1[nH]c2ccccc2n1C1CCN(CCCC(c2ccc(F)cc2)c2ccc(F)cc2)CC1 | 2.34 (≈ 5.06 µM)
18 | CC[C@@]1([C@@H]2O[C@@H]([C@H]3O[C@@](O)(CO)[C@H](C)C[C@@H]3C)C[C@@H]2C)CC[C@H]([C@]2(C)CC[C@]3(C[C@H](O)[C@@H](C)[C@@H]([C@@H](C)[C@@H](OC)[C@H](C)C(=O)O)O3)O2)O1 | 4.12 (≈ 6.15 µM)
19 | CN1CCCC(CC2c3ccccc3Sc3ccccc32)C1 (stereo unspecified) | 10.4 (≈ 33.7 µM)
20 | CN[C@@H]1C(O[C@H]2O[C@H](CO)[C@@H](N)[C@H](O)[C@H]2O)O[C@H]2C[C@@H](N)[C@@H](O[C@H]3[C@H](O)[C@@H](O)[C@H](N)C[C@@H]3N)OC2[C@@H]1O (stereo partly specified) | 3.57 (≈ 6.61 µM)
21 | CC1COc2c(N3CCN(C)CC3)c(F)cc3c(=O)c(C(=O)O)cn1c23 (stereo unspecified) | 0.067 (≈ 0.185 µM)
22 | OC(c1cc(C(F)(F)F)nc2c(C(F)(F)F)cccc12)C1CCCCN1 (stereo unspecified) | 4.16 (≈ 11 µM)
23 | CN(C)[C@@H]1C(=O)C(C(N)=O)=C(O)[C@@]2(O)C(=O)C3=C(O)c4c(O)cccc4[C@@](C)(O)[C@H]3C[C@@H]12 | 6.54 (≈ 14.7 µM)

Row | SMILES | IC90 [µg/mL]
24 | Cc1c2ccncc2c(C)c2c1[nH]c1ccccc12 | 0.17 (≈ 0.69 µM)
25 | NCCC[C@H](N)CC(=O)N[C@H]1CNC(=O)[C@H]([C@H]2C[C@H](O)NC(N)=N2)NC(=O)/C(=C/NC(N)=O)NC(=O)[C@H](CO)NC(=O)[C@H](CO)NC1=O (β3hOrn-[Dap]SS[ΔAla(Z-3-ureido)][X2]; lactam 1-C) | 0.069 (≈ 0.101 µM)
26 | N[C@H]1CONC1=O | 2.27 (≈ 22.3 µM)
27 | Clc1ccc(CCC(Cn2ccnc2)Sc2c(Cl)cccc2Cl)cc1 (stereo unspecified) | 1.61 (≈ 3.9 µM)
28 | CNCCCC12CCC(c3ccccc31)c1ccccc12 | 17.9 (≈ 64.5 µM)
29 | CC[C@H](CO)NCCN[C@H](CC)CO | 0.191 (≈ 0.935 µM)
30 | CCCCCCCCNC(C)C(O)c1ccc(SC(C)C)cc1 (stereo unspecified) | 2.25 (≈ 6.67 µM)
31 | Cc1c(OCC(F)(F)F)ccnc1CS(=O)c1nc2ccccc2[nH]1 (stereo unspecified) | 10.1 (≈ 27.5 µM)
32 | Nc1ccc(S(=O)(=O)Nc2ccnn2-c2ccccc2)cc1 | 12.8 (≈ 40.7 µM)
33 | CN(C)CCCN1c2ccccc2CCc2ccc(Cl)cc21 | 9.56 (≈ 30.4 µM)
34 | Oc1c(I)cc(Cl)c2cccnc12 | 0.482 (≈ 1.58 µM)
35 | CNc1ncnc2c1ncn2[C@@H]1O[C@H](CO)[C@@H](O)[C@H]1O | 0.822 (≈ 2.92 µM)
36 | Clc1ccc(COC(Cn2ccnc2)c2ccc(Cl)cc2Cl)c(Cl)c1 (stereo unspecified) | 1.82 (≈ 4.38 µM)
37 | O=C1CN(/N=C/c2ccc([N+](=O)[O-])o2)C(=O)N1 | 3.92 (≈ 16.5 µM)
38 | CCSc1ccc2c(c1)N(CCCN1CCN(C)CC1)c1ccccc1S2 | 6.34 (≈ 15.9 µM)
39 | CN1C[C@H](CNC(=O)OCc2ccccc2)C[C@@H]2c3cccc4c3c(cn4C)C[C@H]21 | 5.85 (≈ 14.5 µM)
40 | CN(C(=O)CN(CCO)CC(=O)N(C)C(C)(C)Cc1ccccc1)C(C)(C)Cc1ccccc1 | 15.6 (≈ 33.4 µM)
41 | CCCCN(CCCC)CCC(O)c1cc2c(Cl)cc(Cl)cc2c2cc(C(F)(F)F)ccc12 (stereo unspecified) | 1.15 (≈ 2.3 µM)
42 | Nc1ccc(S(=O)(=O)Nc2cnc3ccccc3n2)cc1 | 12.7 (≈ 42.3 µM)
43 | CN(C)CCCN1c2ccccc2Sc2ccc(C(F)(F)F)cc21 | 7.29 (≈ 20.7 µM)
44 | N[C@@H]1CONC1=O | 1.05 (≈ 10.3 µM)
45 | O=C1NCN(c2ccccc2)C12CCN(CCCC(c1ccc(F)cc1)c1ccc(F)cc1)CC2 | 2.64 (≈ 5.56 µM)
46 | CSc1ccc2c(c1)C(N1CCN(C)CC1)Cc1ccccc1S2 (stereo unspecified) | 4.56 (≈ 12.8 µM)
